For one assay, the target named is Protease (Human immunodeficiency virus 1, UniProt Q9YQ12). The assay is described as follows: Inhibition of HIV-1 protease.
Assay [1] has as its system Human immunodeficiency virus 1. Put plainly: Antiviral activity against HIV1 by cell based assay. The assay is classed as functional, organism-based.
The target of the next assay is Cytochrome P450 2D6 (Homo sapiens, UniProt P10635). Put plainly: Inhibition of human CYP2D6.
The next assay deals with Cytochrome P450 2C9 (Homo sapiens, UniProt P11712). Put plainly: Inhibition of human CYP2C9.
Cytochrome P450 2C9, sequence (P11712 whole entry): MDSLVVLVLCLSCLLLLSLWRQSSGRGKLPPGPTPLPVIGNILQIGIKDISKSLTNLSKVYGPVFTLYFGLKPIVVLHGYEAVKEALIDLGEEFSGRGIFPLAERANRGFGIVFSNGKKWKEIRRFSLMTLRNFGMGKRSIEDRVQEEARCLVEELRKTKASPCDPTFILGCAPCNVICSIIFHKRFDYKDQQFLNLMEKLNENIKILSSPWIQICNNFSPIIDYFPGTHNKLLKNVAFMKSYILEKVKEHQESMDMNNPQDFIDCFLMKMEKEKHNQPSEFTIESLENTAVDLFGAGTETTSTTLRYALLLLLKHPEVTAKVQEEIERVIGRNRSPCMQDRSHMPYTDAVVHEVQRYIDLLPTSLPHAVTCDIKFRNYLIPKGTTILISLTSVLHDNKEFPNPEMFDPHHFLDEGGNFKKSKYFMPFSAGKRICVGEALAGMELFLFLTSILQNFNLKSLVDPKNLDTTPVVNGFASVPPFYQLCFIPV
Another assay deals with Cytochrome P450 2C19 (Homo sapiens, UniProt P33261). Put plainly: Inhibition of human CYP2C19.
Cytochrome P450 2C19, sequence (P33261 whole entry): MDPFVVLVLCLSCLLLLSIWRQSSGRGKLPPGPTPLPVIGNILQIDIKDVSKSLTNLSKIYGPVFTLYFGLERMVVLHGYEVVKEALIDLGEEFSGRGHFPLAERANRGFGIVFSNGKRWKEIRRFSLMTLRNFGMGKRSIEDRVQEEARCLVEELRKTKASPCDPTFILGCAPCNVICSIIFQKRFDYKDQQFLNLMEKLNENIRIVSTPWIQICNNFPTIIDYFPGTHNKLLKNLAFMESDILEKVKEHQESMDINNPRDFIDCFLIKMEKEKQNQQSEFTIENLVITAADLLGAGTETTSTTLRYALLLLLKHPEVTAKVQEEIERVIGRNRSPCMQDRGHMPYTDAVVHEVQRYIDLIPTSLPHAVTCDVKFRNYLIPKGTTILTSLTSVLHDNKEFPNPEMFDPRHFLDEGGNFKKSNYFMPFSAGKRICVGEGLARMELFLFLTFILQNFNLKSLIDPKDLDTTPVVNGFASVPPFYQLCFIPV
A further assay concerns the target T1, Cytochrome P450 1A2 (Homo sapiens, UniProt P05177).
T1 sequence (P05177 whole entry): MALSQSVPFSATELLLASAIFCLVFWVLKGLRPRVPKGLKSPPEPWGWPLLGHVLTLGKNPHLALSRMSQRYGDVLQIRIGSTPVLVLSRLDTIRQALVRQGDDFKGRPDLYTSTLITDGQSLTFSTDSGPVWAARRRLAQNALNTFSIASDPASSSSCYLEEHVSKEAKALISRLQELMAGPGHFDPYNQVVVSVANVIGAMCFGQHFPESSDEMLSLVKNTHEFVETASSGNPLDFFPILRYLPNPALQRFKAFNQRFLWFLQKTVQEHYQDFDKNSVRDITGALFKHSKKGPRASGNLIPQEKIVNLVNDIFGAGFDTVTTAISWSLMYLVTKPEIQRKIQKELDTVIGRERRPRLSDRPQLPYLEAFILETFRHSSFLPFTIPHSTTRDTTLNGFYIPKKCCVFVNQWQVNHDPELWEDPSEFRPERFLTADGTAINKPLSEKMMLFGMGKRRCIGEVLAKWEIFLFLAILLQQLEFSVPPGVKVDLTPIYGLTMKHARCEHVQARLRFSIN
The assay is described as follows: Inhibition of human CYP1A2.

In the next assay the target is Cytochrome P450 3A4 (Homo sapiens, UniProt P08684). Put plainly: Inhibition of human CYP3A4-mediated midazolam 1'-hydroxylase activity.
Cytochrome P450 3A4, sequence (P08684 whole entry): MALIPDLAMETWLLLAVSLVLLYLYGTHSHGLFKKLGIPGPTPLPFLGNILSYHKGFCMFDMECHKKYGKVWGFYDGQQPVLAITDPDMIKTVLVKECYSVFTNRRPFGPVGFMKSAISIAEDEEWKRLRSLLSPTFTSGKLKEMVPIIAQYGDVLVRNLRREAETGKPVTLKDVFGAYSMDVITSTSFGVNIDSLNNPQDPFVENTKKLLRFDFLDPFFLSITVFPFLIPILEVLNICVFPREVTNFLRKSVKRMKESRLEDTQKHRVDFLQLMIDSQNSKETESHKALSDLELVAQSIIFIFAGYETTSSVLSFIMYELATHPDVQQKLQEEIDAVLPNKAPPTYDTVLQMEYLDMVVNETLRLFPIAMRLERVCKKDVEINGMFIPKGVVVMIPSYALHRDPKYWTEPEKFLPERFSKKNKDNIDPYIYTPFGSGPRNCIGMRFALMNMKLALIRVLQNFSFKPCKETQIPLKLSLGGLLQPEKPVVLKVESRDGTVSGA

Structures are written as SMILES.

From ChEMBL document CHEMBL3112589, “Structure-activity relationships of diamine inhibitors of cytochrome P450 (CYP) 3A as novel pharmacoenhancers, part I: core region” (Bioorg Med Chem Lett, 2014) come the findings set out here.

Protease, sequence (Q9YQ12 whole entry): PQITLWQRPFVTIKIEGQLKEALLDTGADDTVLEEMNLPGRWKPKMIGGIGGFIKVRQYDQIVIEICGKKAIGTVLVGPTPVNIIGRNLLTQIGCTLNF
Cytochrome P450 2D6, sequence (P10635 whole entry): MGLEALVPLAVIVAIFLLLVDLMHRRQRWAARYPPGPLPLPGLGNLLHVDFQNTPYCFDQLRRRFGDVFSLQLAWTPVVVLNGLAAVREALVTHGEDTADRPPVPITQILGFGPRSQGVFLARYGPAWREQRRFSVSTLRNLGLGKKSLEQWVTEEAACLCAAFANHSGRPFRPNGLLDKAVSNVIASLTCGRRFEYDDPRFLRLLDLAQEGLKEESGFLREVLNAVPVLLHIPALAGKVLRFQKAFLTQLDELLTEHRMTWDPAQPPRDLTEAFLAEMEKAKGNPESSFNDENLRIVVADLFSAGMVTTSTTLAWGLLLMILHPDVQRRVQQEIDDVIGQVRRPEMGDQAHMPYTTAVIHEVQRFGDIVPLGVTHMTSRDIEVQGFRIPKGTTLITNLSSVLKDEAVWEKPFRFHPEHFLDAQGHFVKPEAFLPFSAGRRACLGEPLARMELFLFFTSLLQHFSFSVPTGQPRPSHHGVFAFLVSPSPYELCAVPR

Usually IC50 stands for the concentration that inhibits the measured activity by half. Low values mean higher potency, high ones lower potency. Broadly, the EC50 is the concentration at which the effect is half-maximal. A high value points to a need for much substance. `CC(C)c1nc(CN(C)C(=O)N[C@@H](CCN2CCOCC2)C(=O)N[C@H](CCN(Cc2ccccc2Cl)C(=O)OCc2cncs2)Cc2ccccc2)cs1` gave an IC50 against Protease greater than 30 µM. The half-maximal effective concentration (EC50) in assay [1] is greater than 30 µM.
Turning to `CC(C)c1nc(CN(C)C(=O)N[C@H](C(=O)N[C@@H](C)CC[C@H](C)NC(=O)OCc2cncs2)C(C)C)cs1`, on Protease, the concentration for half-maximal inhibition (IC50) was greater than 30 µM. Besides, the concentration giving a half-maximal response (EC50) in assay [1] was greater than 30 µM.
In turn, `CC(C)c1nc(CN(C)C(=O)N[C@H](C(=O)NCCNC(=O)OCc2cncs2)C(C)C)cs1` returned an EC50 in assay [1] greater than 30 µM.
`CC(C)c1nc(CN(C)C(=O)N[C@H](C(=O)N[C@H](CC[C@H](Cc2ccccc2)N(C)C(=O)OCc2cncs2)Cc2ccccc2)C(C)C)cs1` showed an EC50 in assay [1] of 0.87 µM.
On the same count and under the same terms, as for `CC(C)c1nc(CN(C)C(=O)N[C@H](C(=O)NCCCCNC(=O)OCc2cncs2)C(C)C)cs1`, the figure is greater than 30 µM; as for `CC(C)c1nc(CN(C)C(=O)N[C@H](C(=O)N(C)[C@H](CC[C@H](Cc2ccccc2)NC(=O)OCc2cncs2)Cc2ccccc2)C(C)C)cs1`, 0.73 µM.
In the case of `CC(C)CN(CC[C@H](Cc1ccccc1)NC(=O)OCc1cncs1)C(=O)[C@H](CCN1CCOCC1)NC(=O)N(C)Cc1csc(C(C)C)n1`, the IC50 at Cytochrome P450 2D6 is 8.1 µM; against Protease it was greater than 30 µM; against Cytochrome P450 2C9, greater than 25 µM; against Cytochrome P450 2C19, greater than 25 µM; against Cytochrome P450 1A2, greater than 25 µM. The same compound had an EC50 in assay [1] greater than 30 µM.
`CCC[C@@H](CC[C@H](Cc1ccccc1)NC(=O)[C@@H](NC(=O)N(C)Cc1csc(C(C)C)n1)C(C)C)NC(=O)OCc1cncs1`: it took 1.7 µM to reach a half-maximal effect in assay [1] (EC50).
For the compound `CC(C)CN(CC[C@H](Cc1ccccc1)NC(=O)[C@H](CCN1CCOCC1)NC(=O)N(C)Cc1csc(C(C)C)n1)C(=O)OCc1cncs1`, the 50% inhibitory concentration (IC50) at Protease was greater than 30 µM. In assay [1], this compound gave a 50% effective concentration (EC50) greater than 30 µM.
In assay [1], `CC(C)c1nc(CN(C)C(=O)N[C@H](C(=O)N[C@H](CC(=O)[C@H](Cc2ccccc2)NC(=O)OCc2cncs2)Cc2ccccc2)C(C)C)cs1` came in with an EC50 of 1.65 µM.
Regarding `CC(C)c1nc(CN(C)C(=O)N[C@H](C(=O)N[C@@H](Cc2ccccc2)C[C@H](O)[C@H](Cc2ccccc2)NC(=O)OCc2cncs2)C(C)C)cs1` [RITONAVIR], the EC50 in assay [1] stood at 0.015 µM.
As to `CC(C)c1nc(CN(C)C(=O)N[C@H](C(=O)N(CCCCN(Cc2ccccc2)C(=O)OCc2cncs2)Cc2ccccc2)C(C)C)cs1`, the half-inhibitory concentration (IC50) was 0.24 µM at Cytochrome P450 3A4; 1.1 µM at Cytochrome P450 2D6; 22.7 µM against Protease; 3.4 µM on Cytochrome P450 2C9; 1.5 µM at Cytochrome P450 2C19; greater than 25 µM against Cytochrome P450 1A2. This compound had a 50% effective concentration (EC50) in assay [1] greater than 30 µM.
In the case of `CC(C)c1nc(CN(C)C(=O)N[C@H](C(=O)N[C@H](CCN(Cc2ccccc2)NC(=O)OCc2cncs2)Cc2ccccc2)C(C)C)cs1`, it took 0.03 µM to reach half-maximal inhibition on Protease (IC50). In assay [1], this compound came in with a 50% effective concentration (EC50) of 0.38 µM.
In the same order, the values of `CC[C@@H](CC[C@H](CC)NC(=O)[C@@H](NC(=O)N(C)Cc1csc(C(C)C)n1)C(C)C)NC(=O)OCc1cncs1` are greater than 30 µM and greater than 30 µM.
For `CC(C)c1nc(CN(C)C(=O)N[C@@H](CCN2CCOCC2)C(=O)N[C@H](CCN(Cc2ccc(Cl)cc2)C(=O)OCc2cncs2)Cc2ccccc2)cs1` the same measures were greater than 30 µM and greater than 30 µM.
Compound `CC(C)c1nc(CN(C)C(=O)N[C@H](C(=O)NC2CCN(C(=O)OCc3cncs3)CC2)C(C)C)cs1` came in with an IC50 at Cytochrome P450 3A4 of 1.67 µM. The same compound displayed an EC50 in assay [1] of 9 µM.
In the same order, the values of `CC(C)c1nc(CN(C)C(=O)N[C@H](C(=O)N[C@H](/C=C/[C@H](Cc2ccccc2)NC(=O)OCc2cncs2)Cc2ccccc2)C(C)C)cs1` are 0.15 µM and 11 µM.
With `CC(C)c1nc(CN(C)C(=O)N[C@H](C(=O)NCCCNC(=O)OCc2cncs2)C(C)C)cs1`, the EC50 in assay [1] was greater than 30 µM.
`CC(C)c1nc(CN(C)C(=O)N[C@@H](CCN2CCOCC2)C(=O)NC(Cc2ccccc2)CN(Cc2ccccc2)C(=O)OCc2cncs2)cs1` (stereo not given in full): the IC50 on Protease was greater than 30 µM. The compound also returned a 50% effective concentration (EC50) in assay [1] greater than 30 µM.
`CC(C)c1nc(CN(C)C(=O)N[C@@H](CCN2CCOCC2)C(=O)N[C@H](CCN(Cc2ccccc2)C(=O)OCc2cncs2)Cc2ccccc2)cs1`: the half-maximal inhibitory concentration (IC50) on Cytochrome P450 2D6 was 1.3 µM; at Protease it was greater than 30 µM; against Cytochrome P450 2C9, 8.1 µM; against Cytochrome P450 2C19, 6.7 µM; on Cytochrome P450 1A2, greater than 25 µM. Also, the EC50 in assay [1] is greater than 30 µM.
On to `CC(C)c1nc(CN(C)C(=O)N[C@H](C(=O)N[C@@H](Cc2ccccc2)[C@H](Cc2ccccc2)NC(=O)OCc2cncs2)C(C)C)cs1`, for which the 50% inhibitory concentration (IC50) at Cytochrome P450 2D6 is 2.3 µM; on Protease it was greater than 30 µM; against Cytochrome P450 2C9, greater than 25 µM; at Cytochrome P450 2C19 it was 8.7 µM; at Cytochrome P450 1A2, 22.9 µM. The compound further registered a concentration giving a half-maximal response (EC50) in assay [1] greater than 30 µM.
Turning to `CC(C)c1nc(CN(C)C(=O)N[C@H](C(=O)N[C@@H](Cc2ccccc2)[C@H]2OC(C)(C)O[C@@H]2[C@H](Cc2ccccc2)NC(=O)OCc2cncs2)C(C)C)cs1`, on Cytochrome P450 3A4, the IC50 was determined as 0.31 µM. The EC50 in assay [1] is greater than 30 µM.
Consider `CC(C)c1nc(CN(C)C(=O)N[C@H](C(=O)N[C@H](CCNNC(=O)OCc2cncs2)Cc2ccccc2)C(C)C)cs1`, for which, at Protease, the midpoint of inhibition, the IC50, lay at 8.8 µM. The compound also gave an EC50 in assay [1] greater than 30 µM.
With `CC(C)c1nc(CN(C)C(=O)N[C@H](C(=O)N[C@H](CCN(Cc2ccccc2)C(=O)OCc2cncs2)Cc2ccccc2)C(C)C)cs1`, the half-inhibitory concentration (IC50) was 0.32 µM against Cytochrome P450 3A4; 0.9 µM against Cytochrome P450 2D6; greater than 25 µM against Cytochrome P450 2C9; greater than 25 µM against Cytochrome P450 2C19; greater than 25 µM against Cytochrome P450 1A2. The compound further yielded an EC50 in assay [1] greater than 30 µM.
Regarding `CC(C)c1nc(CN(C)C(=O)N[C@H](C(=O)N(CCCN(Cc2ccccc2)C(=O)OCc2cncs2)Cc2ccccc2)C(C)C)cs1`, the figures for the 50% inhibitory concentration (IC50) against Cytochrome P450 3A4 and against Protease were 0.3 µM and 21 µM, respectively. For the same compound, in assay [1], the 50% effective concentration (EC50) was greater than 30 µM.
In assay [1], `CC(C)c1nc(CN(C)C(=O)N[C@H](C(=O)N2CCC(NC(=O)OCc3cncs3)CC2)C(C)C)cs1` yielded a half-maximal effective concentration (EC50) of 4 µM.
For `CC(C)c1nc(CN(C)C(=O)N[C@H](C(=O)N2CCN(C(=O)OCc3cncs3)CC2)C(C)C)cs1`, inhibition against Cytochrome P450 3A4 was half-maximal at 1.4 µM (IC50). This compound also returned a concentration for a half-maximal effect (EC50) in assay [1] greater than 30 µM.
The compound `CCC[C@@H](CC[C@H](Cc1ccccc1)NC(=O)OCc1cncs1)NC(=O)[C@@H](NC(=O)N(C)Cc1csc(C(C)C)n1)C(C)C` returned an EC50 in assay [1] of 0.55 µM.
Take `CC(C)c1nc(CN(C)C(=O)N[C@H](C(=O)N[C@@H](CC[C@@H](Cc2ccccc2)NC(=O)OCc2cncs2)Cc2ccccc2)C(C)C)cs1`: the half-inhibitory concentration (IC50) against Cytochrome P450 2D6 is 0.4 µM; against Protease, greater than 30 µM; against Cytochrome P450 2C9, 13.8 µM; against Cytochrome P450 2C19, greater than 5 µM; at Cytochrome P450 1A2, 10 µM. This compound also returned a 50% effective concentration (EC50) in assay [1] greater than 30 µM.
Regarding `CC(C)c1nc(CN(C)C(=O)N[C@H](C(=O)N[C@H](CC[C@H](Cc2ccccc2)NC(=O)OCc2cncs2)Cc2ccccc2)C(C)C)cs1`, the IC50 is 2.9 µM on Cytochrome P450 2D6; 0.005 µM on Protease; 6.8 µM at Cytochrome P450 2C9; 9.3 µM on Cytochrome P450 2C19; greater than 25 µM against Cytochrome P450 1A2. In addition, in assay [1], the EC50 was determined as 0.29 µM.
